Where two headings read alike, the source gives them in different places. Each block holds one compound with its values, some of them ahead of it.
Tests used:
P-gp = system: P-gp; design: method as in PMID 24380838; settings: cited from earlier work; for inhibition of P-gp: in vitro and in vivo
CYP2C8 = target: T1, CYP2C8 (Homo sapiens, UniProt P10632); test: Inhibition of recombinant CYP2C8 (probe paclitaxel); assay type: in vitro ADME
T1 sequence (P10632 1-490): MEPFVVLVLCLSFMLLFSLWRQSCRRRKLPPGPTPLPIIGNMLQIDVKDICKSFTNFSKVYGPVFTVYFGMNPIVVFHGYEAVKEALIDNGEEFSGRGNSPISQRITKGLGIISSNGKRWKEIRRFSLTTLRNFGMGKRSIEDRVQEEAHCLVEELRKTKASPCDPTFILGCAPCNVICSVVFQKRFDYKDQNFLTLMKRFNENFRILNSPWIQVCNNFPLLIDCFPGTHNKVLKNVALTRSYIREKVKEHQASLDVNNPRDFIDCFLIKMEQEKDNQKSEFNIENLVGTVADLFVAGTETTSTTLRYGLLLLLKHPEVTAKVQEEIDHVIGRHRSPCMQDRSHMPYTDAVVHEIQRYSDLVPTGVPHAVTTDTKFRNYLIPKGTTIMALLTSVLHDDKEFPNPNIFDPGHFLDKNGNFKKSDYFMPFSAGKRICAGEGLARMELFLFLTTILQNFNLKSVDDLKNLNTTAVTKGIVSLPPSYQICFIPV
Method: (§1) In this study, phenacetin (100 μM), coumarin (100 μM), bupropion (100 μM), paclitaxel (60 μM), tolbutamide (200 μM), mephenytoin (100 μM), chlorzoxazone (200 μM) and nifedipine (40 μM) have been used as the probe substrates for CYP1A2, 2A6, 2B6, 2C8, 2C9, 2C19, 2E1 and 3A4, respectively.

NTCP = system: NTCP; design: method as in PMID 30978651; settings: cited from earlier work
[1] = design: method as in PMID 26586934; settings: HIM; read-out: Km (metabolism to matrine); cited from earlier work
[2] = system: HepG2, MCF-7, HeLa, A549 cells; design: method as in PMID 31283981; settings: cited from earlier work
[3] = design: method as in PMID 26586934; settings: pooled HLM; read-out: Km (metabolism to matrine); cited from earlier work
[4] = system: SW-620, BGC823, A375 cells; design: method as in PMID 31283981; settings: cited from earlier work
CYP3A4 = system: CYP3A4; design: method as in PMID 26586934; settings: CYP3A4 isozyme; read-out: Km (metabolism to matrine); cited from earlier work
[5] = design: method as in earlier work; settings: rat plasma; oxymatrine 30 mg/kg intravenously; cited from earlier work
[6] = design: method as in PMID 16500065; settings: intravenous infusion of 600 mg oxymatrine, healthy male volunteers; cited from earlier work
CYP and UGT enzymes = test: Inhibition of the panel of eight CYP and three UGT isozymes (statements over all enzymes); assay type: in vitro ADME, human; settings: compound 100 μM
Method: After centrifugation (13,800g, 10 min), the supernatant (8 μL) was obtained for determination by UHPLC system.
as §1
Similarly, β-estradiol (60 μM), propofol (40 μM) and 4-MU (350 μM) were typically used as the substrates for UGT1A1, 1A9 and 2B7, respectively. After optimization of incubation conditions (Additional file 1: Fig. S2), the protein concentrations for UGT1A1, 1A9, and 2B7 were 0.125, 0.05, and 0.05 mg/mL, respectively.

[7] = recombinant isozyme, mean ± SD of triplicate, unit not given (IC50 classes in μM), read-out: IC50 towards CYP2C8

Structure (SMILES): CC(C)(O)[C@@H]1CC[C@](C)([C@H]2[C@@H](O)C[C@@]3(C)[C@@H]4C[C@H](O[C@@H]5O[C@H](CO)[C@@H](O)[C@H](O)[C@H]5O)[C@H]5C(C)(C)[C@@H](O[C@@H]6OC[C@@H](O)[C@H](O)[C@H]6O)CC[C@@]56C[C@@]46CC[C@]23C)O1 [Compound B2, Astragaloside IV]
inhibition activity (P-gp; MDR1-MDCKII cells, 100 μM): 8.22%
IC50 (CYP2C8; [7]): > 100 µM

Structure (SMILES): O=C1CCC[C@@H]2[C@H]3CCCN4CCC[C@@H](CN12)[C@@H]34 [Compound A1, Matrine]
inhibition of P-gp (P-gp): did not demonstrate the inhibition of P-gp
IC50 (CYP2C8): > 100 µM

Structure (SMILES): CC(C)=CCC[C@](C)(O[C@@H]1O[C@H](CO[C@@H]2O[C@@H](CO)[C@H](O)[C@H]2O)[C@@H](O)[C@H](O)[C@H]1O)[C@H]1CC[C@]2(C)[C@@H]1[C@H](O)C[C@@H]1[C@@]3(C)CC[C@H](O[C@@H]4O[C@H](CO)[C@@H](O)[C@H](O)[C@H]4O[C@@H]4O[C@H](CO)[C@@H](O)[C@H](O)[C@H]4O)C(C)(C)[C@@H]3CC[C@]12C [Compound D3, Ginsenoside Rc]
IC50 (CYP2C8; [7]): > 100 µM

IC50 (CYP2C8; [7]): > 100 µM
Structure (SMILES): CC(C)=CCC[C@](C)(O[C@@H]1O[C@H](CO[C@@H]2O[C@H](CO)[C@@H](O)[C@H](O)[C@H]2O)[C@@H](O)[C@H](O)[C@H]1O)[C@H]1CC[C@]2(C)[C@@H]1[C@H](O)C[C@@H]1[C@@]3(C)CC[C@H](O[C@@H]4O[C@H](CO)[C@@H](O)[C@H](O)[C@H]4O[C@@H]4O[C@H](CO)[C@@H](O)[C@H](O)[C@H]4O)C(C)(C)[C@@H]3CC[C@]12C [Compound D5, Ginsenoside Rb1]

inhibition type (smallest AIC and SC) (CYP2C8; CYP2C8): mixed-type inhibition
Ki (CYP2C8; CYP2C8, competitive model): 8.2 ± 1.1 µM
Ki (CYP2C8; CYP2C8, mixed-type model): 13.3 ± 2.9 µM
α (CYP2C8; CYP2C8, mixed-type model): 4.2 ± 2.3
Ki (CYP2C8; CYP2C8, noncompetitive model): 26.5 ± 2.2 µM
Cmax/Ki ([I]/Ki) (CYP2C8; CYP2C8, selected model, rat plasma Cmax): 0.1
IC50 (CYP2C8; paclitaxel 60 μM, read-out: IC50 towards CYP2C8): 24 µM
IC50 (CYP2C8; [7]): 24 ± 10.7 µM
Structure (SMILES): CC(C)=CCC[C@](C)(O[C@@H]1O[C@H](CO)[C@@H](O)[C@H](O)[C@H]1O)[C@H]1CC[C@]2(C)[C@@H]1[C@H](O)C[C@@H]1[C@@]3(C)CC[C@H](O)C(C)(C)[C@@H]3[C@@H](O[C@@H]3O[C@H](CO)[C@@H](O)[C@H](O)[C@H]3O[C@@H]3O[C@@H](C)[C@H](O)[C@@H](O)[C@H]3O)C[C@]12C [Compound C9, Ginsenoside Re]

IC50 (CYP2C8; [7]): > 100 µM
Structure (SMILES): CC(C)=CCC[C@](C)(O[C@@H]1O[C@H](CO)[C@@H](O)[C@H](O)[C@H]1O)[C@H]1CC[C@]2(C)[C@@H]1[C@H](O)C[C@@H]1[C@@]3(C)CC[C@H](O[C@@H]4O[C@H](CO)[C@@H](O)[C@H](O)[C@H]4O[C@@H]4O[C@H](CO)[C@@H](O)[C@H](O)[C@H]4O)C(C)(C)[C@@H]3CC[C@]12C [Compound D2, Ginsenoside Rd]

Structure (SMILES): CC(C)=CCC[C@](C)(O[C@@H]1O[C@H](CO)[C@@H](O)[C@H](O)[C@H]1O)[C@H]1CC[C@]2(C)[C@@H]1[C@H](O)C[C@@H]1[C@@]3(C)CC[C@H](O)C(C)(C)[C@@H]3[C@@H](O[C@@H]3O[C@H](CO)[C@@H](O)[C@H](O)[C@H]3O)C[C@]12C [Compound C6, Ginsenoside Rg1]
IC50 (NTCP): 50.5 µM
IC50 (CYP2C8; [7]): > 100 µM

Structure (SMILES): O=C1CCC[C@@H]2[C@H]3CCC[N+]4([O-])CCC[C@@H](CN12)[C@@H]34 (stereo partly shown) [Compound A3, Oxymatrine]
Km [1]: 150 µM
reported effective concentrations (IC50 or EC50 values) [2]: 473.48 to 3787.84 µmol/L
Km [3]: 221 µM
inhibition of P-gp (P-gp): did not demonstrate the inhibition of P-gp
effective concentrations to inhibit tumor cell viability [4]: 0.10 to 40.00 µmol/L
Km (CYP3A4): 341 µM
IC50 (CYP2C8; IC50 towards CYP2C8, recombinant isozyme, mean ± SD of triplicate, unit not given (IC50 classes in μM)): > 100 µM
AUC0–12h [5]: 16234.27 ng·h/mL
CL [5]: 3.10 L/h
Cmax [5]: 32847.57 ng/mL
t1/2 [5]: 34.2 min
fraction of oxymatrine reduced to matrine [6]: about 19.9%

Structure (SMILES): CC(C)=CCC[C@](C)(O)[C@H]1CC[C@]2(C)[C@@H]1[C@H](O)C[C@@H]1[C@@]3(C)CC[C@H](O)C(C)(C)[C@@H]3[C@@H](O[C@@H]3O[C@H](CO)[C@@H](O)[C@H](O)[C@H]3O[C@@H]3O[C@H](CO)[C@@H](O)[C@H](O)[C@H]3O)C[C@]12C [Compound C7, Ginsenoside Rf]
IC50 (CYP2C8; [7]): > 100 µM
changes against these CYP and UGT enzymes (CYP and UGT enzymes): almost no changes
